Test results taken from ChEMBL document CHEMBL5725517, “Azapeptides as CD36 binding compounds” (2017).
pEC50: −log10 of the molar value. Starred links: 1 amine or outer side, 2 acyl side, 3 side chain; linkers in the order of their positions; H or OH if unused. Non-standard residues stand in square brackets, D forms with d. Residues, ends and D or L forms follow the SMILES beside them. X4 = O=C(N(Cc1ccc(-c2ccccc2)cc1)N[*:1])[*:2]; azaTyr = O=C(N(Cc1ccc(O)cc1)N[*:1])[*:2]; X3 = O=C(N(Cc1cccc2ccccc12)N[*:1])[*:2]; azaPhe = O=C(N(Cc1ccccc1)N[*:1])[*:2]; X2 = O=C(N(CCc1ccccc1)N[*:1])[*:2]; azaLeu = CC(C)CN(N[*:1])C(=O)[*:2]; X1 = O=C(N(CC1CCCCC1)N[*:1])[*:2]

Assay: HS-R1a radioreceptor assay: GHS-R1a radioreceptor assay using LLCPK-1 membranes overexpressing GSH-R1a and radioiodinated (1-28) rat ghrelin as tracer.

| pEC50 | Compound |
| --- | --- |
| 5.26 | C[C@H](NC(=O)N(CC1CCCCC1)NC(=O)[C@@H](N)Cc1cnc[nH]1)C(=O)N[C@@H](Cc1c[nH]c2ccccc12)C(=O)N[C@H](Cc1ccccc1)C(=O)N[C@@H](CCCCN)C(N)=O (H-H[X1]AW[dF]K-NH2) |
| 6.11 | C[C@H](NC(=O)[C@@H](Cc1c[nH]c2ccccc12)NC(=O)[C@@H](N)Cc1cnc[nH]1)C(=O)N[C@@H](Cc1ccc(O)cc1)C(=O)N[C@H](Cc1ccccc1)C(=O)N[C@@H](CCCCN)C(N)=O (H-H[dW]AY[dF]K-NH2) |
| 5.37 | C[C@H](NC(=O)[C@@H](Cc1c[nH]c2ccccc12)NC(=O)[C@@H](N)Cc1cnc[nH]1)C(=O)NN(CC1CCCCC1)C(=O)N[C@H](Cc1ccccc1)C(=O)N[C@@H](CCCCN)C(N)=O (H-H[dW]A[X1][dF]K-NH2) |
| 5.43 | C[C@H](NC(=O)[C@@H](Cc1c[nH]c2ccccc12)NC(=O)[C@@H](N)Cc1cnc[nH]1)C(=O)NN(CCc1ccccc1)C(=O)N[C@H](Cc1ccccc1)C(=O)N[C@@H](CCCCN)C(N)=O (H-H[dW]A[X2][dF]K-NH2) |
| 4.71 | CC(C)CN(NC(=O)[C@H](C)NC(=O)[C@@H](Cc1c[nH]c2ccccc12)NC(=O)[C@@H](N)Cc1cnc[nH]1)C(=O)N[C@H](Cc1ccccc1)C(=O)N[C@@H](CCCCN)C(N)=O (H-H[dW]A[azaLeu][dF]K-NH2) |
| 4.80 | C[C@H](NC(=O)[C@@H](Cc1c[nH]c2ccccc12)NC(=O)[C@@H](N)Cc1cnc[nH]1)C(=O)NN(Cc1ccc(O)cc1)C(=O)N[C@H](Cc1ccccc1)C(=O)N[C@@H](CCCCN)C(N)=O (H-H[dW]A[azaTyr][dF]K-NH2) |
| 5.49 | C[C@H](NC(=O)[C@@H](Cc1c[nH]c2ccccc12)NC(=O)[C@@H](N)Cc1cnc[nH]1)C(=O)N[C@H](Cc1ccc(O)cc1)C(=O)N[C@H](Cc1ccccc1)C(=O)N[C@@H](CCCCN)C(N)=O (H-H[dW]A[dY][dF]K-NH2) |
| 5.92 | CC(C)CN(NC(=O)[C@@H](Cc1c[nH]c2ccccc12)NC(=O)[C@@H](N)Cc1cnc[nH]1)C(=O)N[C@@H](Cc1c[nH]c2ccccc12)C(=O)N[C@H](Cc1ccccc1)C(=O)N[C@@H](CCCCN)C(N)=O (H-H[dW][azaLeu]W[dF]K-NH2) |

| Compound | pEC50 |
| --- | --- |
| C[C@H](NC(=O)N(Cc1ccccc1)NC(=O)[C@@H](N)Cc1cnc[nH]1)C(=O)N[C@@H](Cc1c[nH]c2ccccc12)C(=O)N[C@H](Cc1ccccc1)C(=O)N[C@@H](CCCCN)C(N)=O (H-H[azaPhe]AW[dF]K-NH2) | 4.79 |
| C[C@H](NC(=O)[C@@H](Cc1c[nH]c2ccccc12)NC(=O)[C@@H](N)Cc1cnc[nH]1)C(=O)NN(Cc1cccc2ccccc12)C(=O)N[C@H](Cc1ccccc1)C(=O)N[C@@H](CCCCN)C(N)=O (H-H[dW]A[X3][dF]K-NH2) | 6.14 |
| C[C@H](NC(=O)[C@@H](Cc1c[nH]c2ccccc12)NC(=O)[C@@H](N)Cc1cnc[nH]1)C(=O)NN(Cc1ccc(-c2ccccc2)cc1)C(=O)N[C@H](Cc1ccccc1)C(=O)N[C@@H](CCCCN)C(N)=O (H-H[dW]A[X4][dF]K-NH2) | 5.87 |
| C[C@H](NC(=O)[C@@H](Cc1c[nH]c2ccccc12)NC(=O)[C@@H](N)Cc1cnc[nH]1)C(=O)NN(Cc1ccccc1)C(=O)N[C@H](Cc1ccccc1)C(=O)N[C@@H](CCCCN)C(N)=O (H-H[dW]A[azaPhe][dF]K-NH2) | 5.56 |
